One series concerns hiPSC-CM syncytia. The series is described as follows: Spontaneous FP rate and IMP amplitude/beating rate in hiPSC-CM syncytia (RTCA CardioECR / RTCA Cardio). To be noted: for Effect on FP rate / Effect on IMP amplitude: prodrug co-administered with 0.3 μM amiodarone, steady state (4 h), spontaneously beating hiPSC-CM syncytia. It is filed as cell-based, human.
The next series concerns hiPSC-CMs. The series is described as follows: Intracellular prodrug, cleavage intermediate metabolite and NTP metabolite concentrations in hiPSC-CMs. It is filed as in vitro ADME, human. As to conditions: for Intracellular Concentration, Prodrug / Intracellular Concentration, Cleavage Intermediate Metabolite / Intracellular Concentration, NTP Metabolite: hiPSC-CMs; for Intracellular Concentration, Cleavage Intermediate Metabolite / Intracellular Concentration, NTP Metabolite: BLOQ = below 17 pmol/million cells.

Series [1] relates to conscious, male rhesus monkeys. As to conditions: intravenous infusion of MK-3682 after AMIO pretreatment; cited from earlier work.
Series [2] deals with anesthetized, male Dunkin-Hartley guinea pigs. The series is described as follows: Heart rate in anesthetized guinea pigs, IV infusion. It is filed as in vivo, guinea pig.
Excerpt: Adult, male Dunkin-Hartley guinea pigs (350–550 g) were anesthetized and instrumented as previously described[7][29].
The nature of series [3]: Plasma concentration in anesthetized guinea pigs. As to conditions: IV. The text has this: Adult, male Dunkin-Hartley guinea pigs (350–550 g) were anesthetized and instrumented as previously described.
Series [4] can be described thus: Cardiac tissue concentrations in anesthetized guinea pigs. It is filed as in vivo, guinea pig. To be noted: end of IV infusions, prodrug alone or + amiodarone.
The test system of series [5] is conscious, male rhesus monkeys. The series is described as follows: Heart rate, MBP and ECG intervals in conscious, restrained rhesus monkeys. It is filed as in vivo, rhesus monkey. Here is the method: (§1) Arterial BP and ECG waveforms from four chronically-instrumented male, rhesus monkeys (8-16 kg at time of study, approximately 5–8 years of age), were continuously recorded (Notocord-hem™ v 4.3.0.67) and analyzed as described. Prior to study, animals were acclimated to the restraint chair and the laboratory environment over multiple sessions. […] MNI-2 was formulated in 30% Captisol®. […] Samples were placed on wet ice, centrifuged at 4 °C and plasma removed and stored at −70 °C until analysis of concentration of test agents and any metabolites of interest.

Series [6] in a line: Plasma concentration in conscious rhesus monkeys. As to conditions: at the end of the MNI-2+amiodarone experiment. Here is the method: as §1
Setting [7] is: 10 μM prodrug + 0.3 μM amiodarone, 4 Hours.
[8] abbreviates: 10 μM prodrug + 0.3 μM amiodarone, 30 Min.

Regarding `CC(C)OC(=O)[C@@H](C)NP(=O)(OC[C@H]1O[C@@H](n2ccc(=O)[nH]c2=O)[C@](C)(Cl)[C@@H]1O)Oc1ccccc1` (stereo partly drawn) [MK-3682, isopropyl (2R)-2-[[[(2R,3R,4R,5R)-4-chloro-5-(2,4-dioxopyrimidin-1-yl)-3-hydroxy-4-methyl-tetrahydrofuran-2-yl]methoxy-phenoxy-phosphoryl]amino]propanoate], in the series with hiPSC-CM syncytia, the “Effect on FP rate” value is reported as “lack of effects” and the “Effect on IMP amplitude” value is “lack of effects”. In the series with hiPSC-CMs (setting [7]), the “Intracellular Concentration, Prodrug” value was determined as 91.9 ± 12.4 pmol/million cells; the “Intracellular Concentration, Cleavage Intermediate Metabolite” value was “BLOQ”; the “Intracellular Concentration, NTP Metabolite” value was “BLOQ”. Moreover, in the series on hiPSC-CMs (setting [8]), the “Intracellular Concentration, Prodrug” value stood at 95.0 ± 6.7 pmol/million cells; the “Intracellular Concentration, Cleavage Intermediate Metabolite” value is reported as “BLOQ”; the “Intracellular Concentration, NTP Metabolite” value was “BLOQ”. Further, in the series on hiPSC-CMs (10 μM prodrug alone, 4 Hours), the “Intracellular Concentration, Prodrug” value is given as 100.4 ± 13.2 pmol/million cells; the “Intracellular Concentration, Cleavage Intermediate Metabolite” value was “BLOQ”; the “Intracellular Concentration, NTP Metabolite” value was “BLOQ”. In addition, in the series on hiPSC-CMs (10 μM prodrug alone, 30 Min), the “Intracellular Concentration, Prodrug” value amounted to 89.8 ± 12.9 pmol/million cells; the “Intracellular Concentration, Cleavage Intermediate Metabolite” value was “BLOQ”; the “Intracellular Concentration, NTP Metabolite” value is listed as “BLOQ”. The Bradycardia and bradyarrhythmia result in series [1] is “not observed”.
Take `CC(C)OC(=O)[C@@H](C)NP(=O)(OC[C@H]1O[C@@H](n2ccc(=O)[nH]c2=O)[C@](C)(F)[C@@H]1O)Oc1ccccc1` (stereo partly drawn) [MNI-2, isopropyl (2R)-2-[[[(2R,3R,4R,5R)-5-(2,4-dioxopyrimidin-1-yl)-4-fluoro-3-hydroxy-4-methyl-tetrahydrofuran-2-yl]methoxy-phenoxy-phosphoryl]amino]propanoate]: the “Effects on IMP-measured beating rate and IMP amplitude” value with hiPSC-CM syncytia (10 μM prodrug combined with 0.3 μM amiodarone, up to 18 h) is on record as “failed to evoke changes over each drug alone”. Besides, in the series on hiPSC-CM syncytia, the “Effect on FP rate” value is on record as “lack of effects”. Besides, the “Effect on IMP amplitude” value with hiPSC-CM syncytia is on record as “lack of effects”. In the series with hiPSC-CMs (following application of prodrug (10 μM) ± amiodarone), the “Detection of cleavage intermediate metabolite or NTP in hiPSC-CMs” value is listed as “no measurable concentrations”. Besides, the “Intracellular Concentration, Prodrug” value came out at 61.0 ± 3.3 pmol/million cells with hiPSC-CMs (setting [7]); 54.8 ± 3.3 pmol/million cells in the series with hiPSC-CMs (setting [8]); 173.0 ± 133.3 pmol/million cells in the series with hiPSC-CMs (10 μM prodrug alone, 4 Hours); 53.5 ± 4.5 pmol/million cells in the series with hiPSC-CMs (10 μM prodrug alone, 30 Min). For the same compound, the “Intracellular Concentration, Cleavage Intermediate Metabolite” value in the series with hiPSC-CMs (setting [7]) is listed as “BLOQ”; with hiPSC-CMs (setting [8]), “BLOQ”; with hiPSC-CMs (10 μM prodrug alone, 4 Hours), “BLOQ”; in the series on hiPSC-CMs (10 μM prodrug alone, 30 Min), “BLOQ”. Further, the “Intracellular Concentration, NTP Metabolite” value with hiPSC-CMs (setting [7]) was “BLOQ”; in the series on hiPSC-CMs (setting [8]), “BLOQ”; in the series on hiPSC-CMs (10 μM prodrug alone, 4 Hours), “BLOQ”; in the series with hiPSC-CMs (10 μM prodrug alone, 30 Min) it was “BLOQ”. Further, the “HR, % change from baseline” value in series [2] (coadministration of 10 mg/kg MNI-2 and 2.5 mg/kg amiodarone IV (cumulative)) is −9%; in series [2] (cumulative IV infusion dose 10 mg/kg MNI-2 alone), −3%. The “Plasma concentration of parent” value in series [3] (agent + vehicle, End of Infusion 1) was found to be 4.2 ± 2.1 µM; in series [3] (agent + vehicle, End of Infusion 2), 4.2 ± 0.9 µM; in series [3] (agent + vehicle, End of Infusion 3) it was 3.9 ± 0.1 µM; in series [3] (agent + vehicle, End of Infusion 4), 3.7 ± 1.0 µM; in series [3] (treatment MNI-2+AMIO, End of Infusion 1) it was 3.0 ± 0.8 µM; in series [3] (treatment MNI-2+AMIO, End of Infusion 2), 3.5 ± 1.0 µM. Also, the “Plasma concentration of parent” value in series [3] (treatment MNI-2+AMIO, End of Infusion 3) came to 3.7 ± 0.6 µM; in series [3] (treatment MNI-2+AMIO, End of Infusion 4) it was 3.7 ± 0.9 µM. Further, in series [4], the “Cleavage intermediate metabolite and NTP metabolite in cardiac tissue” value is given as “did not produce detectable levels”. Besides, the “Effect on HR” value in series [5] (IV infusion of MNI-2 (4, then 2 mg/kg/30 min), alone or after prior administration of amiodarone (3 mg/kg/30 min)) is listed as “no effect”. Moreover, the “MBP or PR, QRS, QT ECG interval changes” value in series [5] (IV infusion of MNI-2 alone or after pretreatment with amiodarone) is “did not result in MBP or PR, QRS, QT ECG interval changes”. In series [6], the Plasma concentration is on record as 3048 ± 413 ng/mL.

Source of the values: article PMC5361079 (Scientific Reports, 2017).
